Reference: patent publication US20120178786A9, “Use of tetramic acid derivatives for controlling pests by drenching, drip application, or dip application” (priority 2006, published 2012)

Tests used:
[1] = test system: Bemisia argentifolii (BEMIAR); assay: Example 8: drench of tropical sage plants, Henderson-Tilton efficacy against nymphs; type: in vivo; settings: 12 mg active substance/1 potting compost, 240 SC
Protocol: Tropical sage plants cv. “scarlet sage” (approximate height 29 cm) in 6-inch pots and infested with Bemisia argentifolii (BEMIAR) are drenched, in three replications, with an active substance solution containing the active substance I-4 (cis isomer, formulation: 240 SC) and, by way of comparison, with the commercial standard imidacloprid (240 SC) at the application rate stated. The greenhouse temperature is 27-33° C. The test is evaluated 9, 13, 20, 34 and 41 days after the treatment by determining the activity against nymphs on the leaves with the aid of the Henderson-Tilton method.

Aphis craccivora = assay: Example 3: drench of violet plants, Henderson-Tilton efficacy against nymphs; type: in vivo; settings: 12 mg active substance/1 potting compost, 240 SC
Protocol: Violet plants cv. “Ladies delight” (approximate height 15 cm) in 4-inch pots which had been infected with Aphis craccivora two weeks before the treatment are drenched, in four replications, with an active substance solution containing the active substance I-4 (cis isomer, formulation: 240 SC) and, by way of comparison, with the commercial standard imidacloprid (240 SC) at the application rate stated. The greenhouse temperature is 27-33° C. The test is evaluated 7, 14, 22 and 35 days after the treatment by determining the activity against nymphs on the leaves with the aid of the Henderson-Tilton method.

APHIGO = assay: Example 2: drench of cucumber plants on rock wool, Abbott efficacy; type: in vivo, Aphis gossypii; settings: 240 SC
Protocol: Cucumber plants cv. “Delikatess” which have been grown on rock wool are drenched, in six replications, one week after transplanting with in each case 100 ml active substance solution containing the active substance I-4 (cis isomer, formulation: 240 SC) at the application rate stated. The greenhouse temperature is 20° C. Infection with APHIGO is accomplished in each case seven and fourteen days after the application of the active substance. The test is evaluated in each case seven days after each infection by determining the activity with the aid of Abbott's formula.

Liriomyza sp. = assay: Example 14: drench of bell pepper plots, kill rate of larvae in the leaves; type: in vivo; settings: 40 + 10 + 10 mg/plant, 240 SC
Protocol: Plots approximately 2×5 m in size which contain bell pepper plants are treated, in three replications, against Liriomyza sp. The active substance example (I-4) cis isomer (240 SC) is drenched in an active substance solution at the application rate stated. The water application rate is 700 l/ha. Three treatments are carried out at intervals of 7 and 14 days. The test is evaluated in each case 7 days after the 2nd and 3rd treatment and 14 days after the 3rd treatment by scoring the kill rate of the larvae in the leaves.

[2] = test system: Tetranychus urticae (TETRUR); assay: Example 4: drench of aubergine plants, Abbott efficacy; type: in vivo; settings: 240 SC
Protocol: (§1) Aubergine plants (25 days after sowing) in 0.5-1-pots are drenched, in three replications, with 50 ml of active substance solution containing the active substance I-4 (cis isomer, formulation: 240 SC) at the application rate stated. The greenhouse temperature is 20° C. Infection with Aphis gossypii (APHIGO), Myzus persicae (MYZUPE) and Tetranychus urticae (TETRUR) is accomplished in each case seven and fourteen days after the application of the active substance. The test is evaluated in each case seven days after each infection by determining the activity with the aid of Abbott's formula.

Myzus persicae (MYZUPE) = assay: as above; type: in vivo; settings: 240 SC
Protocol: as §1

Aphis gossypii (APHIGO) = assay: as above; type: in vivo; settings: infection 7 d after application, 240 SC
Protocol: as §1

[3] = test system: foliar nematode Aphelenchoides fragariae; assay: Example 16: dip treatment of lily bulbs, number of infested plants; type: in vivo; settings: control 8
Protocol: The bulbs of 15 lily plants cv. “L.A. Glow” (growth stage 14/16) are dipped, in four replications, into an active substance solution containing the active substance I-4 (cis isomer, formulation: 240 SC) at the concentrations stated and subsequently planted into boxes 40×60 cm in size. The bulbs came from a field which was homogeneously infested with the foliar nematode Aphelenchoides fragariae. The number of infested plants is determined by examining leaves under the microscope for foliar nematodes 92 days after the dip treatment.

MYZUPE = assay: Example 1: irrigation experiment in pots, Abbott efficacy; type: in vivo, Myzus persicae
Protocol: In an irrigation experiment carried out in 0.5-1-pots, Chinese cabbage, Savoy cabbage, bell peppers and broad beans which had been potted three days earlier are watered, in two replications, with 50 ml of active substance solution containing the active substance I-4 (cis isomer) at the application rates stated. The greenhouse temperature is 20° C. Infection with MYZUPE is accomplished seven and fourteen days after the application of the active substance. The test is evaluated in each case seven days after each infection by determining the activity with the aid of Abbott's formula.

[4] = infection 7 d after application, 10 mg active substance/plant
[5] = infection 7 d after application, 20 mg active substance/plant
[6] = infection 14 d after application, 10 mg active substance/plant
[7] = infection 14 d after application, 20 mg active substance/plant

O=[N+]([O-])NC1=NCCN1Cc1ccc(Cl)nc1 [Imidacloprid, imidacloprid, reference compound]
95%: Henderson-Tilton efficacy (%) against Bemisia argentifolii ([1]; 20 d after treatment)
94%: Henderson-Tilton efficacy (%) against Bemisia argentifolii ([1]; 9 d after treatment) | Henderson-Tilton efficacy (%) against Bemisia argentifolii ([1]; 34 d after treatment) | Henderson-Tilton efficacy (%) against Aphis craccivora (Aphis craccivora; 14 d after treatment)
100%: Henderson-Tilton efficacy (%) against Bemisia argentifolii ([1]; 13 d after treatment) | Henderson-Tilton efficacy (%) against Bemisia argentifolii ([1]; 41 d after treatment) | Henderson-Tilton efficacy (%) against Aphis craccivora (Aphis craccivora; 7 d after treatment) | Henderson-Tilton efficacy (%) against Aphis craccivora (Aphis craccivora; 22 d after treatment) | Henderson-Tilton efficacy (%) against Aphis craccivora (Aphis craccivora; 35 d after treatment)

CCOC(=O)OC1=C(c2cc(C)ccc2C)C(=O)N[C@]12CC[C@@H](OC)CC2 [Example I-4]
98%: Henderson-Tilton efficacy (%) against Bemisia argentifolii ([1]; 20 d after treatment)
91%: Abbott efficacy (%) against APHIGO (APHIGO; [6])
73%: Abbott efficacy (%) against TETRUR [2, 6]
77%: Abbott efficacy (%) against TETRUR [2, 7]
100%: Abbott efficacy (%) against APHIGO (APHIGO; [4]) | Abbott efficacy (%) against APHIGO (APHIGO; [5]) | Abbott efficacy (%) against APHIGO (APHIGO; infection 7 d after application, 40 mg active substance/plant) | Henderson-Tilton efficacy (%) against Bemisia argentifolii ([1]; 13 d after treatment) | Henderson-Tilton efficacy (%) against Bemisia argentifolii ([1]; 34 d after treatment) | Henderson-Tilton efficacy (%) against Bemisia argentifolii ([1]; 41 d after treatment) | Abbott efficacy (%) against TETRUR [2, 5] | Abbott efficacy (%) against MYZUPE (Myzus persicae (MYZUPE); [4]) | Abbott efficacy (%) against MYZUPE (Myzus persicae (MYZUPE); [5]) | Abbott efficacy (%) against MYZUPE (Myzus persicae (MYZUPE); [6]) | Abbott efficacy (%) against MYZUPE (Myzus persicae (MYZUPE); [7]) | Abbott efficacy (%) against APHIGO (Aphis gossypii (APHIGO); 20 mg active substance/plant) | Henderson-Tilton efficacy (%) against Aphis craccivora (Aphis craccivora; 7 d after treatment) | Henderson-Tilton efficacy (%) against Aphis craccivora (Aphis craccivora; 22 d after treatment) | Henderson-Tilton efficacy (%) against Aphis craccivora (Aphis craccivora; 35 d after treatment) | Abbott efficacy (%) against MYZUPE (MYZUPE; Bell pepper, infection 7 d after application, 10 mg active substance/plant) | Abbott efficacy (%) against MYZUPE (MYZUPE; Bell pepper, infection 7 d after application, 20 mg active substance/plant) | Abbott efficacy (%) against MYZUPE (MYZUPE; Bell pepper, infection 14 d after application, 10 mg active substance/plant) | Abbott efficacy (%) against MYZUPE (MYZUPE; Bell pepper, infection 14 d after application, 20 mg active substance/plant) | Abbott efficacy (%) against MYZUPE (MYZUPE; Broad bean, infection 7 d after application, 20 mg active substance/plant) | Abbott efficacy (%) against MYZUPE (MYZUPE; Chinese cabbage, infection 7 d after application, 10 mg active substance/plant) | Abbott efficacy (%) against MYZUPE (MYZUPE; Chinese cabbage, infection 7 d after application, 20 mg active substance/plant) | Abbott efficacy (%) against MYZUPE (MYZUPE; Savoy cabbage, infection 7 d after application, 10 mg active substance/plant) | Abbott efficacy (%) against MYZUPE (MYZUPE; Savoy cabbage, infection 7 d after application, 20 mg active substance/plant)
99%: Abbott efficacy (%) against APHIGO (APHIGO; infection 14 d after application, 40 mg active substance/plant) | Henderson-Tilton efficacy (%) against Bemisia argentifolii ([1]; 9 d after treatment) | Abbott efficacy (%) against APHIGO (Aphis gossypii (APHIGO); 10 mg active substance/plant) | Abbott efficacy (%) against MYZUPE (MYZUPE; Broad bean, infection 14 d after application, 20 mg active substance/plant) | Abbott efficacy (%) against MYZUPE (MYZUPE; Chinese cabbage, infection 14 d after application, 10 mg active substance/plant) | Abbott efficacy (%) against MYZUPE (MYZUPE; Chinese cabbage, infection 14 d after application, 20 mg active substance/plant) | Abbott efficacy (%) against MYZUPE (MYZUPE; Savoy cabbage, infection 14 d after application, 10 mg active substance/plant) | Abbott efficacy (%) against MYZUPE (MYZUPE; Savoy cabbage, infection 14 d after application, 20 mg active substance/plant)
66.7 % Abbott: Efficacy (% Abbott) against Liriomyza sp. (Liriomyza sp.; 7 d after 2nd treatment)
83%: Abbott efficacy (%) against MYZUPE (MYZUPE; Broad bean, infection 7 d after application, 10 mg active substance/plant)
0: Infested plants ([3]; lily bulbs dipped, a.i. 0.075 %, 15 plants, 92 days after dip treatment) | Infested plants ([3]; lily bulbs dipped, a.i. 0.15 %, 15 plants, 92 days after dip treatment)
100 % Abbott: Efficacy (% Abbott) against Liriomyza sp. (Liriomyza sp.; 7 d after 3rd treatment)
96%: Abbott efficacy (%) against APHIGO (APHIGO; [7]) | Abbott efficacy (%) against TETRUR [2, 4]
84%: Henderson-Tilton efficacy (%) against Aphis craccivora (Aphis craccivora; 14 d after treatment)
23%: Abbott efficacy (%) against MYZUPE (MYZUPE; Broad bean, infection 14 d after application, 10 mg active substance/plant)
6: Infested plants ([3]; comparison: foliar treatment with 150 g/ha, 15 lily plants)
81.8 % Abbott: Efficacy (% Abbott) against Liriomyza sp. (Liriomyza sp.; 14 d after 3rd treatment)
